Assay results published in US20140271734A1, “BILE ACID RECYCLING INHIBITORS FOR TREATMENT OF BARRETT'S ESOPHAGUS AND GASTROESOPHAGEAL REFLUX DISEASE” (LUMENA PHARMACEUTICALS, INC., priority 2013, published 2014).
Read-outs that look alike come from different tables or passages of the source.

Columns and labels:
[1] = tested on: serum total bile acid (SBA); conditions: previous experiments; cited from earlier work
[2] = Pharmacokinetics of LUM001 after oral solution and capsule in dogs; assay type: in vivo, Beagle dogs; conditions: for Cmax / Tmax / AUC(0-t) / bioavailability: female, Beagle, dog, plasma; for Cmax / Tmax / AUC(0-t): po, 7.5 mg/kg; for AUC(0-t): read-out: AUC(0-24 h); for bioavailability: read-out: BA (bioavailability)
Protocol: Three fasted female Beagle dogs were administered LUM001 either as an oral solution at doses of 1 or 7.5 mg LUM001 free form/kg or in an oral capsule at a dose of 7.5 mg LUM001 free form/kg in a cross-over design. A dose of 7.5 mg LUM001 free form/kg was also administered as an oral solution to fed beagle dogs to evaluate the effect of food on plasma concentrations of LUM001.
Blood samples of approximately 3 mL was collected by venipuncture or indwelling catheter into chilled tubes containing heparin at the following timepoints: 0 (predose), 0.5, 1, 1.5, 2, 3, 5, 6, 8, 10, and 24 hours. The plasma samples were prepared by centrifugation of blood within 30 minutes after sample collection. All samples were stored at −20° C.±5° C. until analysis to study the relative exposures of LUM001 free form after capsule or oral solution dosing.

[3] = Pharmacokinetics of LUM002 100 mg single oral dose in humans; assay type: in vivo, human
Protocol: Healthy male subjects, from 18 to 45 years of age, were given a single oral solution dose (100 mg in 100 mL) of LUM002 under fasting conditions. Blood samples for the determination of LUM002 plasma concentration were collected predose and 0.5, 1, 2, 3, 4, 5, 6, 8, 10, 12, 16, 24, and 48 hours after treatment administration. Plasma was obtained by centrifugation and […] processed for protein precipitation, centrifuged again to remove the precipitate and the supernatant prepared for LC-MSMS analysis. LUM002 plasma concentrations were determined using a validated liquid chromatography tandem mass spectrometry (LC-MSMS) assay with a lower limit of quantification (LLOQ) of 0.1 ng/mL. LUM002 plasma concentrations were used to determine the following pharmacokinetic parameters using standard noncompartmental techniques: Cmax, Tmax, AUClast, and, if applicable due to the low-absorbable characteristics of LUM002, also AUC, AUC0-24 and t1/2.

[4] = tested on: plasma bile acid; test: Plasma bile acid concentrations in ZDF rats; assay type: in vivo; conditions: SC-435 1, 10 or 30 mg/kg; LUM002 0.3, 1, 3, 10 or 30 mg/kg; oral gavage twice a day, end of second week, n=4
Protocol: Male Zucker diabetic fatty rats (ZDF/GmiCrl-fa/fa) were purchased from Charles River (Raleigh, N.C.) and housed under controlled conditions (12:12 light-dark cycle, 24° C. and 50% relative humidity) with free access to rodent food (Purina 5008, Harlan Teklad, Indianapolis, Ind.). All rats arrived at seven weeks of age (±3 days). After a one-week acclimation period, rats were anesthetized with isoflurane (Abbott Laboratories, IL) and tail-vein blood samples were collected at 9 am without fasting. Blood glucose levels were measured using a glucometer (Bayer, Leverkusen, Germany). In order to ensure balanced treatment groups, ZDF rats were assigned to six treatment groups based upon baseline glucose: vehicle (0.5% HPMC, 0.1% Tween80) and five doses of 264W94 (0.001, 0.01, 0.1, 1, 10 mg/kg). All treatments were given via oral gavage twice a day and animals were followed for two weeks with blood samples collected from tail vein at the end of each week at 9 am without fasting. Fecal samples were collected for 24 hours during the second week of treatment.
Non-esterified fatty acids (NEFA), bile acids, and bile acids in fecal extraction were measured using the Olympus AU640 clinical chemistry analyzer (Beckman Coulter, Irving, Tex.).
Male ZDF rats (n=4) were administered vehicle, SC-435 (1, 10 or 30 mg/kg) or LUM002 (0.3, 1, 3, 10 or 30 mg/kg) by oral gavage twice a day for 2 weeks. Plasma bile acid levels were determined at the end of the second week. […] Data are expressed as mean values±SEM.

[5] = tested on: plasma triglycerides; test: Plasma triglycerides in ZDF rats, week 3; assay type: in vivo; conditions: twice daily oral gavage, no dose-related response
[6] = oral capsule 7.5 mg/kg free form, fasted
[7] = oral solution 7.5 mg/kg free form, fed
[8] = 100 mg single oral dose, Geometric Mean, N=6
[9] = 100 mg single oral dose, Median, N=6
[10] = 100 mg single oral dose, Subject 250001149
[11] = 100 mg single oral dose, Subject 250001150
[12] = 100 mg single oral dose, Subject 250001151
[13] = 100 mg single oral dose, Subject 250001154
[14] = 100 mg single oral dose, Subject 250001155
[15] = 100 mg single oral dose, Subject 750001156
[16] = 100 mg single oral dose, mean, N=6

Structure (SMILES): CCCCC1(CCCC)CS(=O)(=O)c2ccc(N(C)C)cc2[C@@H](c2ccc(OCc3ccc(C[N+]45CCN(CC4)CC5)cc3)cc2)[C@H]1O [LUM001]
- Time LUM001 remains active [1]: more than 4.5 hours
- Cmax [2, 6]: 4.24 ng/mL
- Tmax [2, 6]: 5 h
- AUC(0-t) [2, 6]: 33.7 ng·h/mL
- Cmax [2, 7]: 1.28 ng/mL
- Tmax [2, 7]: 0.5 h
- AUC(0-t) [2, 7]: 3.9 ng·h/mL
- bioavailability [2, 6]: < 0.1%
- bioavailability ([2]; oral solution 1 mg/kg free form, fasted): < 0.1%
- BA (bioavailability) ([2]; oral solution 7.5 mg/kg free form, fasted): <0.1%
- BA (bioavailability) [2, 7]: <0.1%

Structure (SMILES): CCCC[C@]1(CC)CS(=O)(=O)c2ccc(N(C)C)cc2[C@@H](c2cccc(NC(=O)N[C@@H]3O[C@H](COS(=O)(=O)[O-])[C@@H](O)[C@H](OCc4ccccc4)[C@H]3O)c2)[C@H]1O.CCO.O.[K+] [LUM002, potassium((2R,3R,4S,5R,6R)-4-benzyloxy-6-{3-[3-((3S,4R,5R)-3-butyl-7-dimethylamino-3-ethyl-4-hydroxy-1,1-dioxo-2,3,4,5-tetrahydro-1H-benzo[b]thiepin-5-yl)-phenyl]-ureido}-3,5-dihydroxy-tetrahydro-pyran-2-ylmethyl)sulphate ethanolate, hydrate]
- AUClast [3, 8]: 0.187 ng·h/mL
- Cmax [3, 8]: 0.197 ng/mL
- Tmax [3, 8]: 3.22 h
- tlast [3, 8]: 4.93 h
- AUClast [3, 9]: 0.148 ng·h/mL
- Cmax [3, 9]: 0.216 ng/mL
- Tmax [3, 9]: 5.00 h
- tlag [3, 9]: 1.00 h
- tlast [3, 9]: 5.00 h
- AUC0-24 [3, 10]: 1.92 ng·h/mL
- AUCExt [3, 10]: 39%
- AUClast [3, 10]: 1.19 ng·h/mL
- Cmax [3, 10]: 0.300 ng/mL
- Tmax [3, 10]: 5.00 h
- t1/2z [3, 10]: 3.39 h
- tlag [3, 10]: 0.00 h
- tlast [3, 10]: 8.00 h
- AUClast [3, 11]: 0.0815 ng·h/mL
- Cmax [3, 11]: 0.163 ng/mL
- Tmax [3, 11]: 5.00 h
- tlag [3, 11]: 4.00 h
- tlast [3, 11]: 5.00 h
- AUClast [3, 12]: 0.0645 ng·h/mL
- Cmax [3, 12]: 0.129 ng/mL
- Tmax [3, 12]: 3.00 h
- tlag [3, 12]: 2.00 h
- tlast [3, 12]: 3.00 h
- AUClast [3, 13]: 0.215 ng·h/mL
- Cmax [3, 13]: 0.269 ng/mL
- Tmax [3, 13]: 6.00 h
- tlag [3, 13]: 0.00 h
- tlast [3, 13]: 6.00 h
- AUClast [3, 14]: 0.522 ng·h/mL
- Cmax [3, 14]: 0.286 ng/mL
- Tmax [3, 14]: 0.50 h
- tlag [3, 14]: 0.00 h
- tlast [3, 14]: 4.00 h
- AUClast [3, 15]: 0.0600 ng·h/mL
- Cmax [3, 15]: 0.120 ng/mL
- Tmax [3, 15]: 5.00 h
- tlag [3, 15]: 4.00 h
- tlast [3, 15]: 5.00 h
- AUClast [3, 16]: 0.355 ng·h/mL
- Cmax [3, 16]: 0.211 ng/mL
- Tmax [3, 16]: 4.08 h
- tlag [3, 16]: 1.67 h
- tlast [3, 16]: 5.17 h
- LUM002 dose systemically absorbed ([3]; healthy male subjects, single oral solution 100 mg, fasting): Less than 1%
- Plasma bile acid levels [4]: decreased for all doses
- Fasting plasma triglycerides [5]: statistically significant elevations
